Tests used:
adenosine receptors A2A = target: T1, adenosine receptors A2A (Homo sapiens, UniProt P29274); test: TR-FRET-based cAMP accumulation assay in hADORA2A-HEK293 cells; assay type: cell-based; details: NECA at EC80, hADORA2A-HEK293, read-out: A2AR activity (IC50)
T1 construct: expressed in transfected cells; host or cells: HEK293 (hADORA2A-HEK293)
Description: The inhibitory effects of the test compounds on the adenosine receptors A2A were evaluated by TR-FRET-based cAMP accumulation assay. The method included, in HEK293 cells (hADORA2A-HEK293) expressing A2AR, the production of cAMP stimulated by NECA and the inhibitory effect of A2A receptor antagonists on cAMP. All cells were cultured in a complete medium at 37° C. in the presence of 5% CO2. After being digested with trypsin, the cells were collected by centrifugation at 200 g for 5 minutes. The cells were resuspended in a fresh complete medium, and then the cell viability was counted by a trypan blue exclusion method. […] The cells were diluted with Hank's buffer solution containing HEPES (5 mM), BSA stabilizer (0.1%) and Rolipram (10 μM), then added to a 384-well white non-transparent plate (cells/well, 10 μl/well), and incubated with the test compound at an appropriate concentration (11 concentrations) for 20 minutes at room temperature. Then, the A2A receptor agonist NECA (final concentration=EC80, which was determined in the same experiment performed earlier) was added to the sample, and the sample was incubated again at 37° C. for 30 minutes.
An inhibition rate (%) was calculated according to the following formula, and an IC50 value was calculated from a concentration-inhibition (%) curve after log conversion.
A curve corresponding to the dose was fitted by using XLfit software and the IC50 was determined.

[1] = Pharmacokinetics of Compounds 27, 16, 14 and 22 in SD rats; assay type: in vivo; details: for AUC(0-t) / Cmax / half-life / clearance: Sprague-Dawley, rat, in vivo; for clearance: read-out: Cl—pred (converted)
Excerpt: (§1) WinNonlin® 6.4 was used as the calculation software for PK parameters.

[2] = Pharmacokinetics of test compounds in SD rats (15.2; IV and PO, mixed administration); assay type: in vivo; details: male, Sprague-Dawley, rat, plasma; SD rats, PO, 2 mg/kg, mixed administration (6 compounds per group)
Description: Administration dose: the compounds in this group were all administered in a mixed way, with 6 compounds in each group for mixed PO administration.
Blood was collected based on the blood collection points in the test protocol. 50 μL of plasma sample was added with acetonitrile (containing 5 ng/mL Verapamil) being 3 folds of the volume thereof; the resulting mixture was vortexed for 30 s, and then centrifuged for 15 min at 15,000 rpm at 4° C.; and 10μ L of supernatant was taken for LC-MS/MS analysis.
For each compound, 3 male SD rats weighing 200-220 g were fasted for one night before dosage, but had access to water.
Orally intragastric administration: before intragastric administration and at 0.083 h, 0.25 h, 0.5 h, 1 h, 2 h, 4 h, 8 h and 24 h after administration (for Compounds 40, 27, 40 and 47), or at 0.25 h, 0.5 h, 1 h, 4 h, 6 h and 8 h after administration (for Compounds 44 and 48), orbital blood was collected and put in a test tube that was treated with heparin sodium, and after centrifugation, the supernatant plasma was collected for LC-MS/MS analysis.
The plasma samples were processed according to the method for “sample treatment” and then analyzed by LC-MS/MS, accompanied with the standard curve and quality control samples. At a time point when the upper limit of quantification was exceeded, the samples were diluted 10 or 100 folds for analysis. All measured data were collected and processed by Analyst 1.6.3 software, and the data were calculated and processed with Microsoft Excel. With DAS 3.2.8 software, the pharmacokinetic parameters were calculated by the statistical moment method. The pharmacokinetic parameters mainly include Tmax, t1/2, Cmax, AUC(0-t), etc.

[3] = Pharmacokinetics of Compounds 27, 40, 22 and 41 in ICR mice in different modes of administration; assay type: in vivo; details: for AUC(0-t) / Cmax / half-life: ICR
Excerpt: as §1

T1 sequence (P29274 whole entry): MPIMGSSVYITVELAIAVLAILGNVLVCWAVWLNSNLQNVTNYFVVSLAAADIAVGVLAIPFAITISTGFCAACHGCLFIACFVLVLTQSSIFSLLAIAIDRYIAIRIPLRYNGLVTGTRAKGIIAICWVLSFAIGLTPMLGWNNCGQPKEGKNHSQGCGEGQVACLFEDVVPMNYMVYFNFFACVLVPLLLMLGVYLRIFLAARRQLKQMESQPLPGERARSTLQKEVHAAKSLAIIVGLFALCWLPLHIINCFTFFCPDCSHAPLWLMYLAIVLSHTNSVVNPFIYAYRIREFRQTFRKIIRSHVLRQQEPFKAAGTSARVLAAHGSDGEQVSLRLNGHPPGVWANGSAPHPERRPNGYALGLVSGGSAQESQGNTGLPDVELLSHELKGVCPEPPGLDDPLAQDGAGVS

| SMILES | IC50 (adenosine receptors A2A) [nM] | AUC(0-t) [2] [ng·h/mL] | further results |
| --- | --- | --- | --- |
| CC1(C(=O)Nc2ccc(CCNc3nc(N)n4nc(-c5ccco5)nc4n3)cc2)CCOCC1 [Compound 6, N-(4-(2-((7-amino-2-(furan-2-yl)-[1,2,4]triazolo[1,5-a][1,3,5]triazin-5-yl)amino)ethyl)phenyl)-4-methyltetrahydro-2H-pyran-4-carboxamide] | 9.24 |  |  |
| Nc1nc(NCCc2ccc(OCCN3CCC(F)(F)C3)cc2)nc2nc(-c3ccco3)nn12 [Compound 14, N5-(4-(2-(3,3-difluoropyrrolidin-1-yl)ethoxy)phenethyl)-2-(furan-2-yl)-[1,2,4]triazolo[1,5-a][1,3,5]triazine-5,7-diamine] |  |  | Cl—F—pred ([1]; PO, dose 10 (mg/kg)): 144 mL/min/kg; F ([1]; PO, dose 10 (mg/kg)): 17.90%; AUC(0-t) ([1]; IV, dose 1 (mg/kg)): 678 ng·h/mL; Cmax ([1]; IV, dose 1 (mg/kg)): 1680 ng/mL; half-life ([1]; IV, dose 1 (mg/kg)): 0.44 h; clearance ([1]; IV, dose 1 (mg/kg)): 24.7 mL/min/kg; AUC(0-t) ([1]; PO, dose 10 (mg/kg)): 1210 ng·h/mL; Cmax ([1]; PO, dose 10 (mg/kg)): 574 ng/mL; half-life ([1]; PO, dose 10 (mg/kg)): 3.05 h |
| Nc1nc(NCCc2ccc(OCCN3CC[C@H](F)C3)cc2)nc2nc(-c3ccco3)nn12 [Compound 16, (S)-N5-(4-(2-(3-fluoropyrrolidin-1-yl)ethoxy)phenethyl)-2-(furan-2-yl)-[1,2,4]triazolo[1,5-a][1,3,5]triazine-5,7-diamine] |  |  | Cl—F—pred ([1]; PO, dose 10 (mg/kg)): 233 mL/min/kg; AUC(0-t) ([1]; IV, dose 1 (mg/kg)): 536 ng·h/mL; Cmax ([1]; IV, dose 1 (mg/kg)): 986 ng/mL; half-life ([1]; IV, dose 1 (mg/kg)): 0.61 h; clearance ([1]; IV, dose 1 (mg/kg)): 31.5 mL/min/kg; AUC(0-t) ([1]; PO, dose 10 (mg/kg)): 758 ng·h/mL; Cmax ([1]; PO, dose 10 (mg/kg)): 258 ng/mL; half-life ([1]; PO, dose 10 (mg/kg)): 4.78 h |
| Nc1nc(NCCc2ccc(NC3CCOCC3)cc2)nc2nc(-c3ccco3)nn12 [Compound 18, 2-(furan-2-yl)-N5-(4-((tetrahydro-2H-pyran-4-yl)amino)phenethyl)-[1,2,4]triazolo[1,5-a][1,3,5]triazine-5,7-diamine] | 3.83 | 441 |  |
| COCCN(CCOC)c1ccc(CCNc2nc(N)n3nc(-c4ccco4)nc3n2)cc1 [Compound 21, N5-(4-(bis(2-methoxyethyl)amino)phenethyl)-2-(furan-2-yl)-[1,2,4]triazolo[1,5-a][1,3,5]triazine-5,7-diamine] | 1.62 | 603 |  |
| COCCN(C)c1ccc(CCNc2nc(N)n3nc(-c4ccco4)nc3n2)cc1 [Compound 25, 2-(furan-2-yl)-N5-(4-((2-methoxyethyl)(methyl)amino)phenethyl)-[1,2,4]triazolo[1,5-a][1,3,5]triazine-5,7-diamine] |  | 142 |  |
| COCCOCCNc1ccc(CCNc2nc(N)n3nc(-c4ccco4)nc3n2)cc1 [Compound 28, 2-(furan-2-yl)-N5-(4-((2-(2-methoxyethoxy)ethyl)amino)phenethyl)-[1,2,4]triazolo[1,5-a][1,3,5]triazine-5,7-diamine] | 6.77 | 757 |  |
| COCCOCCOCCNc1ccc(CCNc2nc(N)n3nc(-c4ccco4)nc3n2)cc1 [Compound 29, 2-(furan-2-yl)-N5-(4-((2-(2-(2-methoxyethoxy)ethoxy)ethyl)amino)phenethyl)-[1,2,4]triazolo[1,5-a][1,3,5]triazine-5,7-diamine] |  | 160 |  |
| CCOCCNc1ccc(CCNc2nc(N)n3nc(-c4ccco4)nc3n2)cc1 [Compound 30, N5-(4-((2-ethoxyethyl)amino)phenethyl)-2-(furan-2-yl)-[1,2,4]triazolo[1,5-a][1,3,5]triazine-5,7-diamine] | 3.52 |  |  |
| COCC(COC)Nc1ccc(CCNc2nc(N)n3nc(-c4ccco4)nc3n2)cc1 [Compound 35, N5-(4-(1,3-dimethoxypropane-2-ylamino)phenethyl)-2-(furan-2-yl)-[1,2,4]triazolo[1,5-a][1,3,5]triazine-5,7-diamine] | 4.88 | 1600 |  |
| Nc1nc(NCCc2ccc(NC3COC3)cc2)nc2nc(-c3cccc(F)c3)nn12 [Compound 37, 2-(3-fluorophenyl)-N5-(4-(oxetan-3-ylamino)phenethyl)-[1,2,4]triazolo[1,5-a][1,3,5]triazine-5,7-diamine] | 7.07 | 1830 |  |
| CN(C)C(=O)c1ccc(CCNc2nc(N)n3nc(-c4ccco4)nc3n2)cc1 [Compound 38, 4-(2-(7-amino-2-(furan-2-yl)-[1,2,4]triazolo[1,5-a][1,3,5]triazine-5-ylamino)ethyl)-N,N-dimethylbenzamide] | 8.71 |  |  |
| CCn1nnc(-c2ccc(CCNc3nc(N)n4nc(-c5ccco5)nc4n3)cc2)n1 [Compound 41, N5-(4-(2-ethyl-2H-tetrazol-5-yl)phenethyl)-2-(furan-2-yl)-[1,2,4]triazolo[1,5-a][1,3,5]triazine-5,7-diamine] | 7.87 | 1890 | AUC(0-t) ([3]; mouse, in vivo, iv, 1 mg/kg): 1110 ng·h/mL; Cmax ([3]; mouse, in vivo, iv, 1 mg/kg): 2230 ng/mL; half-life ([3]; mouse, in vivo, iv, 1 mg/kg): 0.28 h; AUC(0-t) ([3]; mouse, in vivo, po, 5 mg/kg): 1800 ng·h/mL; Cmax ([3]; mouse, in vivo, po, 5 mg/kg): 1300 ng/mL; half-life ([3]; mouse, in vivo, po, 5 mg/kg): 1.85 h; Cl—F—pred ([3]; PO, 5 mg/kg): 48.7 mL/min/kg; F ([3]; PO, 5 mg/kg): 32.51%; clearance ([3]; mouse, in vivo, IV, 1 mg/kg, read-out: Cl—pred (converted)): 15.2 mL/min/kg |
| CC(C)n1nnc(-c2ccc(CCNc3nc(N)n4nc(-c5ccco5)nc4n3)cc2)n1 [Compound 42, N5-(4-(2-isopropyl-2H-tetrazol-5-yl)phenethyl)-2-(furan-2-yl)-[1,2,4]triazolo[1,5-a][1,3,5]triazine-5,7-diamine] | 9.08 | 818 |  |
| CCCn1nnc(-c2ccc(CCNc3nc(N)n4nc(-c5ccco5)nc4n3)cc2)n1 [Compound 43, N5-(4-(2-propyl-2H-tetrazol-5-yl)phenethyl)-2-(furan-2-yl)-[1,2,4]triazolo[1,5-a][1,3,5]triazine-5,7-diamine] |  | 315 |  |
| N#CCn1nnc(-c2ccc(CCNc3nc(N)n4nc(-c5ccco5)nc4n3)cc2)n1 [Compound 44, 2-(5-(4-(2-(7-amino-2-(furan-2-yl)-[1,2,4]triazolo[1,5-a][1,3,5]triazine-5-ylamino)ethyl)-phenyl)-2H-tetrazol-2-yl)acetonitrile] |  | 341 |  |
| N#Cc1ccc(CCNc2nc(N)n3nc(-c4ccco4)nc3n2)cc1 [Compound 45, 4-(2-(7-amino-2-(furan-2-yl)-[1,2,4]triazolo[1,5-a][1,3,5]triazine-5-ylamino)ethyl)-benzonitrile] |  | 718 |  |
| Nc1nc(NCCc2ccc(-c3nnn(CC(F)(F)F)n3)cc2)nc2nc(-c3ccco3)nn12 [Compound 46, N5-(4-(2-(2,2,2-trifluoroethyl)-2H-tetrazol-5-yl)phenethyl)-2-(furan-2-yl)-[1,2,4]triazolo[1,5-a][1,3,5]triazine-5,7-diamine] |  | 739 |  |
| Nc1nc(NCCc2ccc(-c3ccccn3)cc2)nc2nc(-c3ccco3)nn12 [Compound 48, 2-(furan-2-yl)-N5-(4-(pyridin-2-yl)phenethyl)-[1,2,4]triazolo[1,5-a][1,3,5]triazine-5,7-diamine] |  | 597 |  |
| Nc1nc(NCCc2ccc(-c3ncccn3)cc2)nc2nc(-c3ccco3)nn12 [Compound 51, 2-(furan-2-yl)-N5-(4-(pyrimidin-2-yl)phenethyl)-[1,2,4]triazolo[1,5-a][1,3,5]triazine-5,7-diamine] |  | 420 |  |
| Cn1cnc(-c2ccc(CCNc3nc(N)n4nc(-c5ccco5)nc4n3)cc2)n1 [Compound 52, 2-(furan-2-yl)-N5-(4-(1-methyl-1H-1,2,4-triazol-3-yl)phenethyl)-[1,2,4]triazolo[1,5-a][1,3,5]triazine-5,7-diamine] |  | 388 |  |

Source: patent US20230048888A1, “USE OF TRIAZOLOTRIAZINE DERIVATIVE IN TREATMENT OF DISEASES” (ZHEJIANG VIMGREEN PHARMACEUTICALS, LTD., priority 2019, published 2023)
